Data published in the supplement of paper PMC10307832.

What was measured:
Assay in all cases: relative viability (nuclei count vs DMSO), 5 days (fraction); higher = more cells survive
BX 795 + Trametinib = compound: O=C(NCCCNc1nc(Nc2cccc(NC(=O)N3CCCC3)c2)ncc1I)c1cccs1 [BX 795] + CC(=O)Nc1cccc(-n2c(=O)n(C3CC3)c(=O)c3c(Nc4ccc(I)cc4F)n(C)c(=O)c(C)c32)c1 [Trametinib] (partner 0.02 µM)
In short: (§1)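 Dosing by pin tool came one day after lung cancer cell lines were seeded in 1536-well plates, using either one drug or a fixed anchor-drug dose plus five library-drug doses (not always all listed) in √10 steps. After 5 days, nuclei were counted on 4× images. Relative viability is treated-well nuclei count divided by vehicle-well nuclei count, and values are medians of duplicate plates.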

BX 795 + Lapatinib = compound: O=C(NCCCNc1nc(Nc2cccc(NC(=O)N3CCCC3)c2)ncc1I)c1cccs1 [BX 795] + CS(=O)(=O)CCNCc1ccc(-c2ccc3ncnc(Nc4ccc(OCc5cccc(F)c5)c(Cl)c4)c3c2)o1 [Lapatinib] (partner 2 µM)
In short: as §1

BX 795 + Alpelisib = compound: O=C(NCCCNc1nc(Nc2cccc(NC(=O)N3CCCC3)c2)ncc1I)c1cccs1 [BX 795] + Cc1nc(NC(=O)N2CCC[C@H]2C(N)=O)sc1-c1ccnc(C(C)(C)C(F)(F)F)c1 [Alpelisib] (partner 2 µM)
In short: as §1

BX 795 + Luminespib = compound: O=C(NCCCNc1nc(Nc2cccc(NC(=O)N3CCCC3)c2)ncc1I)c1cccs1 [BX 795] + CCNC(=O)c1noc(-c2cc(C(C)C)c(O)cc2O)c1-c1ccc(CN2CCOCC2)cc1 [Luminespib] (partner 0.01 µM)
In short: as §1

BX 795 + Pemetrexed = compound: O=C(NCCCNc1nc(Nc2cccc(NC(=O)N3CCCC3)c2)ncc1I)c1cccs1 [BX 795] + Nc1nc2[nH]cc(CCc3ccc(C(=O)N[C@@H](CCC(=O)O)C(=O)O)cc3)c2c(=O)[nH]1 [Pemetrexed] (partner 0.2 µM)
In short: as §1

| Cell Line | relative viability (BX 795 + Trametinib; first compound 0.04 µM) | relative viability (BX 795 + Trametinib; first compound 0.1265 µM) | relative viability (BX 795 + Trametinib; first compound 0.4 µM) | relative viability (BX 795 + Trametinib; first compound 1.265 µM) | relative viability (BX 795 + Lapatinib; first compound 0.04 µM) | relative viability (BX 795 + Lapatinib; first compound 0.1265 µM) | relative viability (BX 795 + Lapatinib; first compound 0.4 µM) | relative viability (BX 795 + Lapatinib; first compound 1.265 µM) | relative viability (BX 795 + Alpelisib; first compound 0.04 µM) | relative viability (BX 795 + Alpelisib; first compound 0.1265 µM) | relative viability (BX 795 + Alpelisib; first compound 0.4 µM) | relative viability (BX 795 + Alpelisib; first compound 1.265 µM) | relative viability (BX 795 + Luminespib; first compound 0.04 µM) | relative viability (BX 795 + Luminespib; first compound 0.1265 µM) | relative viability (BX 795 + Luminespib; first compound 0.4 µM) | relative viability (BX 795 + Luminespib; first compound 1.265 µM) | relative viability (BX 795 + Pemetrexed; first compound 0.04 µM) | relative viability (BX 795 + Pemetrexed; first compound 0.1265 µM) | relative viability (BX 795 + Pemetrexed; first compound 0.4 µM) | relative viability (BX 795 + Pemetrexed; first compound 1.265 µM) |
| --- | --- | --- | --- | --- | --- | --- | --- | --- | --- | --- | --- | --- | --- | --- | --- | --- | --- | --- | --- | --- |
| HCC-15 | 0.389 | 0.381 | 0.505 | 0.355 | 0.721 | 0.871 | 0.795 | 0.661 | 0.865 | 0.877 | 0.959 | 0.665 | 0.346 | 0.298 | 0.298 | 0.408 | 0.199 | 0.202 | 0.215 | 0.194 |
| HCC-44 | 1.14 | 1.08 | 1.23 | 1.12 | 0.934 | 1.01 | 0.981 | 1.04 | 0.742 | 0.865 | 0.85 | 0.543 | 0.98 | 1.37 | 0.497 | 0.58 | 0.537 | 0.614 | 0.449 | 0.666 |
| HCC-78 | 0.823 | 0.756 | 0.797 | 0.737 | 0.93 | 0.585 | 0.604 | 0.732 | 0.406 | 0.337 | 0.39 | 0.303 |  |  |  |  | 0.913 | 0.888 | 0.873 | 0.883 |
| HCC-366 | 0.391 | 0.338 | 0.421 | 0.32 | 0.834 | 1.11 | 0.858 | 1.12 | 0.462 | 0.432 | 0.291 | 0.113 |  |  |  |  | 0.104 | 0.168 | 0.0915 | 0.149 |
| HCC-827 | 0.54 | 0.539 | 0.575 | 0.551 | 0.186 | 0.18 | 0.215 | 0.191 | 1.02 | 0.975 | 1.02 | 0.924 | 0.746 | 0.657 | 0.823 | 0.644 | 0.266 | 0.288 | 0.245 | 0.241 |
| HOP-62 | 0.374 | 0.369 | 0.365 | 0.317 | 1.09 | 1.1 | 1.29 | 1.07 | 0.901 | 0.643 | 1.24 | 1 | 0.81 | 1.01 | 1.08 | 1.02 | 0.303 | 0.284 | 0.296 | 0.306 |
| IA-LM |  |  |  |  | 0.94 | 0.994 | 1.5 | 0.544 | 0.844 | 0.636 | 0.614 | 0.666 |  |  |  |  |  |  |  |  |
| LC-2-ad | 0.886 | 0.95 | 0.646 | 0.662 | 0.89 | 0.962 | 0.7 | 0.274 | 0.959 | 0.89 | 0.654 | 0.268 | 1.16 | 1.03 | 0.938 | 0.662 | 0.267 | 0.288 | 0.25 | 0.263 |
| LCLC-97TM1 | 0.203 | 0.19 | 0.179 | 0.166 | 1.05 | 0.842 | 0.926 | 0.362 | 0.236 | 0.229 | 0.393 | 0.155 | 0.939 | 0.657 | 0.774 | 0.456 | 0.152 | 0.184 | 0.177 | 0.184 |
| LCLC-103H | 0.578 | 0.681 | 0.712 | 0.651 |  |  |  |  | 0.944 | 1.1 | 1.05 | 1.01 | 0.941 | 0.84 | 1.06 | 0.737 | 0.432 | 0.429 | 0.407 | 0.452 |
| LK-2 | 0.757 | 0.837 | 0.583 | 0.629 | 1.02 | 0.912 | 0.83 | 0.797 | 1.1 | 1.07 | 0.952 | 1.03 | 0.186 | 0.174 | 0.175 | 0.189 | 0.277 | 0.237 | 0.269 | 0.24 |
| NCI-H441 | 0.545 | 0.4 | 0.596 | 0.335 |  |  |  |  | 0.779 | 0.748 | 1.42 | 0.552 | 0.323 | 0.297 | 0.333 | 0.278 | 0.255 | 0.272 | 0.281 | 0.267 |
| NCI-H727 | 0.377 | 0.38 | 0.36 | 0.4 | 0.737 | 1.01 | 0.735 | 0.637 | 0.577 | 0.763 | 0.583 | 0.376 | 0.345 | 0.257 | 0.29 | 0.389 |  |  |  |  |
| NCI-H1563 |  |  |  |  | 1.01 | 1.01 | 1.05 | 0.785 | 0.964 | 0.859 | 0.917 | 0.811 | 0.593 | 0.472 | 0.47 | 0.447 | 0.977 | 0.759 | 0.857 | 0.746 |
| NCI-H1650 | 0.6 | 0.493 | 0.551 | 0.504 | 0.938 | 0.737 | 0.671 | 0.521 |  |  |  |  | 0.212 | 0.191 | 0.206 | 0.189 | 0.392 | 0.431 | 0.243 | 0.416 |
| SW 900 | 0.819 |  | 0.99 | 0.706 |  |  |  |  |  |  |  |  | 0.17 | 0.157 | 0.19 | 0.169 | 0.488 |  | 0.469 | 0.455 |
